The values below come from patent US6545014B2, “Method of treating glaucoma” (Texas Biotechnology Corporation, priority 1991, dated 2003).

Where two headings read alike, the source gives them in different places. Some results are limits rather than exact numbers.

For experiment [1], the target named is T1, human ETB receptor (Homo sapiens, UniProt P24530).
T1 construct: expressed in transfected cells; host or cells: COS7 cells
T1 sequence (P24530 27-442): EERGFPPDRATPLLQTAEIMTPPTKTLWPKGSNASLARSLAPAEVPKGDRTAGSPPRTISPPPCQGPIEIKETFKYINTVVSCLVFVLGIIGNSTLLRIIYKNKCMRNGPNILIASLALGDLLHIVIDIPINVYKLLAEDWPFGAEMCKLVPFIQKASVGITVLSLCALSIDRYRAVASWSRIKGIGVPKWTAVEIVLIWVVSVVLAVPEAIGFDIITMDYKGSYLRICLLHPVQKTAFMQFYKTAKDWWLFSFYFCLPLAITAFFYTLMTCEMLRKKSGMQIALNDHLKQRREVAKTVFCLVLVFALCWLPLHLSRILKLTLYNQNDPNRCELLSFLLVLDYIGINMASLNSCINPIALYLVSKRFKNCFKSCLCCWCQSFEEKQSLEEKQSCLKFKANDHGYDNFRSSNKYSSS
Put plainly: Binding Test #2: inhibition of 125I-endothelin-1 binding to ETB receptors (transfected COS7 cell membranes). To be noted: incubation at 24° C.; generally the average of 2 to 3 experiments. From the text:
(§1) Compounds that are potential endothelin antagonists are identified by testing their ability to compete with ^125I-labeled ET-1 for binding to human ETA receptors or ETB receptors present on isolated cell membranes. The effectiveness of the test compound as an antagonist or agonist of the biological tissue response of endothelin can also be assessed by measuring the effect on endothelin induced contraction of isolated rat thoracic aortic rings. The ability of the compounds to act as antagonists or agonists for ETB receptors can be assess by testing the ability of the compounds are to inhibit endothelin-1 induced prostacyclin release from cultured bovine aortic endothelial cells.
COS7 cells were transfected with DNA encoding the ETB receptor, The resulting cells, which express the human ETB receptor, were grown to confluence in T-150 flasks. Membrane was prepared as described above. The binding assay was performed as described above using the membrane preparation diluted with binding buffer to a concentration of 1 μg/50 μl.
Briefly, the COS7 cells, described above, that had been transfected with DNA encoding the ETB receptor and express the human ETB receptor on their surfaces were grown to confluence in T-175 flasks. Cells from multiple flasks were collected by scraping, pooled and centrifuged for 10 min at 190×g. The cells were resuspended in phosphate buffered saline (PBS) containing 10 mM EDTA using a Tenbroeck homogenizer. The suspension was centrifuged at 4° C. 57,800×g for 15 min, the pellet was resuspended in 5 ml of buffer A (5mM HEPES buffer, pH 7.4 containing aprotinin (100 KIU/ml)) and then frozen and thawed once. Five ml of Buffer B (5 mM HEPES Buffer, pH 7.4 containing 10 mM MnCl2 and 0.001% deoxyribonuclease Type 1) was added, the suspension mixed by inversion and then incubated at 37° C. for 30 minutes. The mixture was centrifuged at 57,800×g as described above, the pellet washed twice with buffer A and then resuspended in buffer C (30 mM HEPES buffer, pH 7.4 containing aprotinin (100 KIU/ml) to give a final protein concentration of 2 mg/ml.
The binding assay was performed as described above using the membrane preparation diluted to give 1 μg/50, μl of binding buffer.

The target in experiment [2] is T2, human ETA receptors (Homo sapiens, UniProt P25101).
T2 construct: host or cells: TE 671 cells (membranes)
T2 sequence (P25101 21-427): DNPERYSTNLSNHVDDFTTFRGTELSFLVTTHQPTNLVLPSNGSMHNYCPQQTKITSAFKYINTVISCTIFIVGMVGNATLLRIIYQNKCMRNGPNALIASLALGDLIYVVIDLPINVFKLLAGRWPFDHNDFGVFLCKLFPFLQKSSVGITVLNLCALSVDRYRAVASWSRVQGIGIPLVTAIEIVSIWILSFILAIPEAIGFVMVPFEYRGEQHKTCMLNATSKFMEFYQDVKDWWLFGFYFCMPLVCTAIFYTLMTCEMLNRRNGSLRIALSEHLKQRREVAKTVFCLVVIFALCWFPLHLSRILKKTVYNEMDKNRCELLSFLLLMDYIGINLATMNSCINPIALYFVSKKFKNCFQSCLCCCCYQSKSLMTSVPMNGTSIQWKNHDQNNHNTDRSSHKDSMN
Kind of experiment: Binding Test #1: inhibition of 125I-endothelin-1 binding to ETA receptors (TE 671 cell membranes). To be noted: incubation at 24° C.; generally the average of 2 to 3 experiments.
Excerpt: as §1
TE 671 cells (ATCC Accession No. HTB 139) express ETA receptors. These cells were grown to confluence in T-175 flasks. Cells from multiple flasks were collected by scraping, pooled and centrifuged for 10 min at 190×g. The cells were resuspended in phosphate buffered saline (PBS) containing 10 mM EDTA using a Tenbroeck homogenizer. The suspension was centrifuged at 4° C. at 57,800×g for 15 min, the pellet was resuspended in 5 ml of buffer A (5 mM HEPES buffer, pH 7.4 containing aprotinin (100 KIU/ml)) and then frozen and thawed once. 5 ml of Buffer B (5 mM HEPES Buffer, pH 7.4 containing 10 mM MnCl2 and 0.001 % deoxyribonuclease Type 1) was added, the suspension mixed by inversion and then incubated at 37° C. for 30 minutes. The mixture was centrifuged at 57,800×g as described above, the pellet washed twice with buffer A and then resuspended in buffer C (30 mM HEPES buffer, pH 7.4 containing aprotinin (100 KIU/ml) to give a final protein concentration of 2 mg/ml and stored at −70° C. until use.
The membrane suspension was diluted with binding buffer (30 mM HEPES buffer, pH 7.4 containing 150 mM NaCl, 5 mM MgCl2, 0.5% Bacitracin) to a concentration of 8 μg/50, μl. ^125I-endothelin-1 (3,000 cpm, […]) was added to 50 μl of either: (A) endothelin-1 (for non specific binding) to give a final concentration 80 nM); (B) binding buffer (for total binding); or (C) a test compound (final concentration 1 nM to 100 μM). The membrane suspension (50 μl), containing up to 8 μg of membrane protein, was added to each of (A), (B), or (C). Mixtures were shaken, and incubated at 4° C. for 16-18 hours, and then centrifuged at 4° C. for 25 min at 2,500×g. Alternatively, the incubation was conducted at 24° C. When incubated at 24° C., the IC50 concentrations are 2- to 10-fold higher than when the incubation is conducted at 4° C. This, must be kept in mind when comparing IC50 concentrations among compounds provided herein.
The supernatant, containing unbound radioactivity, was decanted and the pellet counted on a Genesys multiwell gamma counter. The degree of inhibition of binding (D) was calculated according to the following equation: [formula]
Each test was generally performed in triplicate.

The test system of experiment [3] is isolated vascular strips. To be noted: read-out: EC50, contractile agent; cited from earlier work.
Experiment [4] has as its system ETA receptor. The settings on record: cited from earlier work; for IC50: read-out: IC50, inhibition of 125I-labelled endothelin-1 binding.
In experiment [5] the test system is ETB receptors. To be noted: concentrations up to 100 μM; cited from earlier work.

As for `CCc1sc2ncccc2c1S(=O)(=O)Nc1onc(C)c1Cl` [N-(4-chloro-3-methyl-5-isoxazolyl)-2-ethylthieno[2,3-b]pyridine-3-sulfonamide], the IC50 came to 39000 nM in experiment [1] and 68 nM in experiment [2].
The corresponding values for `Cc1noc(NS(=O)(=O)c2csc3ncccc23)c1Cl` [N-(4-chloro-3-methyl-5-isoxazolyl)thieno[2,3-b]pyridine-3-sulfonamide] are more than 100000 nM and 1800 nM.
As to `Cc1noc(NS(=O)(=O)c2c(Cc3ccc4c(c3)OCO4)sc3ncccc23)c1Cl` [N-(4-chloro-3-methyl-5-isoxazolyl)-2-[3,4-(methylenedioxy)benzyl]thieno [2,3-b]pyridine-3-sulfonamide], the figures for the IC50 in experiment [1] and in experiment [2] were 2800 nM and 5.6 nM, respectively.
In the case of `COc1cccc(OC)c1Cc1sc2ncccc2c1S(=O)(=O)Nc1onc(C)c1Cl` [N-(4-chloro-3-methyl-5-isoxazolyl)-2-(2,6-dimethoxybenzyl)thieno[2,3-b]pyridine-3-sulfonamide], the results for the IC50 in experiment [1] and in experiment [2] were 10100 nM and 650 nM, respectively.
The corresponding values for `CCc1sc2ncccc2c1S(=O)(=O)Nc1noc(C)c1Cl` [N-(4-chloro-5-methyl-3-isoxazolyl)-2-ethylthieno [2,3-b]pyridine-3-sulfonamide] are 30000 nM and 45 nM.
Turning to `Cc1noc(NS(=O)(=O)c2c(Cc3cccc4ccccc34)sc3ncccc23)c1Cl` [N-(4-chloro-3-methyl-5-isoxazolyl)-2-(1-naphthylmethyl)thieno[2,3-b]pyridine-3-sulfonamide], the results for the IC50 in experiment [1] and in experiment [2] were 560 nM and 34 nM, respectively.
Regarding “endothelin-1: potent twenty-one amino acid peptide vasoconstrictor”, the EC50 in experiment [3] was 0.4 nM. For the same molecule, the “potency of inhibition of 125I-labelled endothelin-1 binding relative to endothelin-3” value in experiment [4] (cardiovascular tissues) is listed as “forty to seven hundred times more potently than endothelin-3”.
In the case of `Cc1cc2c(cc1Cc1sc3ncccc3c1S(=O)(=O)Nc1noc(C)c1Cl)OCO2` [N-(4-chloro-5-methyl-3-isoxazolyl)-2-[2-methyl-4,5-(methylenedioxy)-benzyl]thieno[2,3-b]pyridine-3-sulfonamide], the IC50 in experiment [1] was determined as 500 nM; in experiment [2], 1 nM.
The matching figures for `Cc1noc(NS(=O)(=O)c2c(Cc3cc4c(cc3CCO)OCO4)sc3ncccc23)c1Cl` [N-(4-chloro-3-methyl-5-isoxazolyl)-2-[2-(2-hydroxyethyl)-4,5-(methylenedioxy)benzyl]thieno[2,3-b]pyridine-3-sulfonamide]: 3600 nM and 1.5 nM.
In the case of `Cc1ccc(Cc2sc3ncccc3c2S(=O)(=O)Nc2onc(C)c2Cl)c(C)c1` [N-(4-chloro-3-methyl-5-isoxazolyl)-2-(2,4-dimethylbenzyl)thieno[2,3-b]pyridine-3-sulfonamide], the IC50 is 1500 nM in experiment [1] and 4.5 nM in experiment [2].
Consider `Cc1noc(NS(=O)(=O)c2c(C(=O)CCc3ccc4c(c3)OCO4)sc3ncccc23)c1Cl` [N-(4-chloro-3-methyl-5-isoxazolyl)-2-[3-(3,4-methylenedioxyphenyl)-proponyl]thieno [2,3-b]pyridine-3-sulfonamide], for which the results for the IC50 in experiment [1] and in experiment [2] were 6600 nM and 45 nM, respectively.
`Cc1noc(NS(=O)(=O)c2c(C(=O)c3ccc4c(c3)OCO4)sc3ncccc23)c1Cl` [N-(4-chloro-3-methyl-5-isoxazolyl)-2-[3,4-(methylenedioxy)benzoyl]-thieno [2,3-b]pyridine-3-sulfonamide]: the IC50 turned out to be 31000 nM in experiment [1] and 960 nM in experiment [2].
The corresponding values for `Cc1cc2c(cc1Cc1sc3ncccc3c1S(=O)(=O)Nc1onc(C)c1Cl)OCO2` [N-(4-chloro-3-methyl-5-isoxazolyl)-2-[2-methyl-4,5-(methylene-dioxy)benzyl]thieno [2,3-b]pyridine-3-sulfonamide] are 1600 nM and 1.5 nM.
“cyclo(D-Glu-L-Ala-allo-D-llc-L-Leu-D-Trp) [BE-18257B]”: the IC50 in experiment [4] (aortic smooth muscle) was 1400 nM; in experiment [4] (cultured aortic smooth muscle cells), 500 nM; in experiment [4] (ventricle membranes), 800 nM. In experiment [5], the “inhibition of binding to receptors in tissues in which ETB receptors predominate” value is reported as “fails to inhibit binding”.

The term IC50 denotes the concentration needed to halve the response being measured. Broadly, the EC50 is the midpoint of the concentration-response curve.
